2 compounds from patent publication US12582122B2, “Herbicidal compositions comprising clethodim” (BASF SE, priority 2024, dated 2026) can be followed below.

The structures appear in SMILES notation.

The experiment deals with Digitaria insularis (DIGIN). In words: Post-emergence application in field trials, herbicidal activity (damage 0-100% vs untreated control). The experiment is classed as in vivo. The following applies: solo, post-emergence field trial, 21 DAT, 0.5% MSO; for % herbicidal activity B: 240 g ai/ha; for % herbicidal activity A-1: 50 g ai/ha. The method, then:
In the examples below, using the method of S. R. Colby (1967) “Calculating synergistic and antagonistic responses of herbicide combinations”, Weeds 15, p. 22ff., the value E, which is expected if the activity of the individual active compounds is only additive, was calculated:
[formula] • where • X=percent activity using active herbicide A at an application rate a; • Y=percent activity using active herbicide B (e.g. clethodim) at an application rate b; • E=expected activity (in %) by A+B at application rates a+b.
If the value found experimentally is higher than the value E calculated according to Colby, a synergistic effect is present.
On field test sites, natural weed infestation or seeded weeds were treated post-emergence of the weeds.
In the field trials, the weeds were treated as indicated below.
In the following experiments, the herbicidal activity for the individual herbicidal compositions (solo and mixture applications) was assessed at the indicated days after treatment (DAT). The assessments for the damage on undesired weeds caused by the composition was carried out using a scale from 0 to 100%, compared to the untreated control plants. Here, 0 means no damage and 100 means complete destruction of the plants.
Herbicide A-1 and clethodim were, together with addition of 0.5% MSO (methylated sed oil) as adjuvant, formulated in water as distribution medium (water volume 200 l/ha) and sprayed with commercial flat fan nozzles.

As for `CCSC(C)CC1CC(=O)C(/C(CC)=N/OC/C=C/Cl)=C(O)C1` (stereo not shown) [B, clethodim], the “% herbicidal activity B” value by setting is: (DIGIN height 5-15 cm) 68%; (DIGIN height 60-80 cm) 57%.

As to `CCOC(=O)COc1ccccc1Oc1nc(-n2c(=O)cc(C(F)(F)F)n(C)c2=O)c(F)cc1Cl` [A-1, ethyl 2-[2-[[3-chloro-5-fluoro-6-[3-methyl-2,6-dioxo-4-(trifluoromethyl)pyrimidin-1-yl]-2-pyridyl]oxy]phenoxy]acetate], the “% herbicidal activity A-1” value came out at 57% (DIGIN height 5-15 cm) and 62% (DIGIN height 60-80 cm).
